The test system of this test is human cord blood-derived CD34+ cells. Description: Expansion of CD34+ cells from human cord blood-derived CD34+ cells (7-day liquid culture with SCF, flow cytometry count). It is filed as cell-based. The following applies: 168 h, number of CD34+ cells relative to absence of compound, 100 ng/mL SCF, 7 days, 37° C., read-out: Expansion efficiency; for fold induction at 1 µg/mL: 1 μg/mL compound; for fold induction at 0.3 µg/mL: 0.3 μg/mL compound. Here is the method:
Commercially available human cord blood-derived CD34^+ cells (Cambrex Bio Science Walkersville) were plated on a 12-well plate (Corning) (from 5000 to 10000 cells/1 mL/well). As the culture medium, StemSpan SFEM (Stemcell Technologies) containing 100 ng/mL SCF (R&D Systems) was used, and Compounds Nos. 1 to 11 dissolved in dimethyl sulfoxide were added in an amount of 0.1% (v/v) to a final concentration of 0.3 or 1 μg/mL.
After the cells were incubated in liquid culture at 37° C. for 7 days in a CO2 incubator (in an atmosphere containing 5 vol % CO2), the total number of cells was counted by trypan blue assay (Invitrogen) or Flow-Count™ fluorosphere assay (Beckman Coulter). The number of CD34^+ cells was calculated as follows. After the incubation, the cells in the liquid culture was stained with a CD34 antibody (PE, Becton, Dickinson and Company). The stained cells were analyzed with a flow cytometer (Beckman Coulter) to determined the proportion of CD34^+ cells, which was multiplied by the total number of cells to calculate the number of CD34^+ cells.
The expansion efficiencies in the presence of 0.3 μg/mL or 1 μg/mL of compounds based on the number of CD34^+ cells in the absence of them are shown in Table 1 on a scale of A for expansion efficiencies of 3 or greater, B for expansion efficiencies of at least 2 and less than 3, and C for expansion efficiencies of at least 1.4 and less than 2.

Consider `CC(=O)NC1CCN(C(=O)c2ccc(C(=O)N/N=C(\C)c3csc(-c4ccc(Cl)c(Cl)c4)c3O)s2)C1` (centres unmarked) [compound 1], for which the fold induction at 1 µg/mL was no less than 3.

As for `C/C(=N\NC(=O)c1ccc(C(=O)NN(C)C)s1)c1csc(-c2ccc(Cl)c(Cl)c2)c1O` [compound 2], the fold induction at 1 µg/mL is no less than 3.

As to `C/C(=N\NC(=S)Nc1cccc(C(=O)NCCC(N)=O)c1)c1csc(-c2ccc(Cl)c(Cl)c2)c1O` [compound 3], the fold induction at 1 µg/mL is no less than 3.

`C/C(=N\NC(=O)c1ccc(C(=O)N2CC(O)C(O)C2)s1)c1csc(-c2ccc(Cl)c(Cl)c2)c1O` (centres unmarked) [compound 4]: the fold induction at 1 µg/mL is no less than 3.

Turning to `C/C(=N\NC(=O)c1ccc(C(=O)NNc2ccccn2)s1)c1csc(-c2ccc(Cl)c(Cl)c2)c1O` [compound 5], the fold induction at 0.3 µg/mL lay within 1.4 to 2.

In the case of `C/C(=N\NC(=O)c1ccc(C(=O)N(N)Cc2ccncc2)s1)c1csc(-c2ccc(Cl)c(Cl)c2)c1O` [compound 6], the fold induction at 0.3 µg/mL is 1.4 to 2.

As to `C/C(=N\NC(=O)c1ccc(C(=O)Cn2ccc(=O)cc2)s1)c1csc(-c2ccc(Cl)c(Cl)c2)c1O` [compound 7], the fold induction at 0.3 µg/mL was in the range of 1.4 to 2.

Regarding `C/C(=N\NC(=O)c1ccc(C(=O)CSc2ccncc2)s1)c1csc(-c2ccc(Cl)c(Cl)c2)c1O` [compound 8], the fold induction at 0.3 µg/mL was in the range of 2 to 3.

As to `C/C(=N\NC(=O)c1ccc(C(=O)N2CCS(=O)(=O)CC2)s1)c1csc(-c2ccc(Cl)c(Cl)c2)c1O` [compound 9], the fold induction at 0.3 µg/mL lay in the range of 1.4 to 2.

`C/C(=N\NC(=O)c1ccc(C(=O)CSc2cc[n+]([O-])cc2)s1)c1csc(-c2ccc(Cl)c(Cl)c2)c1O` [compound 10]: the fold induction at 1 µg/mL is no less than 3.

With `C/C(=N\NC(=O)c1ccc(C(=O)COc2cc(C)nn2C)s1)c1csc(-c2ccc(Cl)c(Cl)c2)c1O` [compound 11], the fold induction at 1 µg/mL fell in the range of 2 to 3.

These data come from patent US20100310536A1, “METHOD FOR EXPANDING HEMATOPOIETIC STEM CELLS USING HETEROCYCLIC COMPOUND” (Nissan Chemical Industries Limited, priority 2007, published 2010).
